Measured values taken from patent US6911449B2, “Inhibition of matrix metalloproteases by substituted biaryl oxobutyric acids” (Bayer Pharmaceuticals Corporation, priority 1996, dated 2005).

Legend:
[1] = target: T1, MMP-9 (Homo sapiens, UniProt P14780); test: P218 quenched fluorescence assay for MMP inhibition, MMP-9; assay type: biochemical; conditions: 6 μM P218 substrate, 25 min at 37° C., pH 6.5; read-out: MMP-9 Fluorogenic IC50
T1 construct: made in house
Excerpt: (§1) P218 Quenched Fluorescence Assay for MMP Inhibition:
(§2) The P218 quenched fluorescence assay (Microfluorometric Profiling Assay) is a modification of that originally described by Knight, et al., FEBS Lett. 296, 263 (1992) for a related substance and a variety of matrix metalloproteinases (MMPs) in cuvettes. The assay was run with each invention compound and the three MMPs, MMP-3, MMP-9 and MMP-2, analyzed in parallel, adapted as follows for a 96-well microtiter plate and a Hamilton AT® workstation.
(§3) P218 Fluorogenic Substrate: P218 is a synthetic substrate containing a 4-acetyl-7-methoxycoumarin (MCA) group in the N-terminal position and a 3-[2,4-dinitrophenyl]-L-2,3-diaminopropionyl (DPA) group internally. This is a modification of a peptide reported by Knight (1992) that was used as a substrate for matrix metalloproteinases. Once the P218 peptide is cleaved (putative clip site at the Ala-Leu bond), the fluorescence of the MCA group can be detected on a fluorometer with excitation at 328 nm and emission at 393 nm. P218 is currently being produced BACHEM exclusively for Bayer. P218 has the structure:
(§4) H-MCA-Pro-Lys-Pro-Leu-Ala-Leu-DPA-Ala-Arg-NH2 (MW 1332.2)
Preparation of Human Recombinant Pro-Gelatinase B (MMP-9):
Recombinant Human Pro-MMP-9: Human pro-gelatinase B (pro-MMP-9) derived from U937 cDNA as described by Wilhelm, et al. J. Biol. Chem. 264, 17213 (1989) was expressed as the full-length form using a baculovirus protein expression system. The pro-enzyme was purified using methods previously described by Hibbs, et al. J. Biol. Chem. 260, 2493 (1984).
Activation of Pro-MMP-9: […] 20 μg/mL in 50 mM Tris at pH 7.4, 10 mM CaCl2, 150 mM NaCl, and 0.005% Brij-35 (MMP-9 activation buffer) was activated by incubation with 0.5 mM p-aminophenylmercuric acetate (APMA) for 3.5 h at 37° C. The enzyme was dialyzed against the same buffer to remove the APMA.
(§5) Hamiltion Microlab AT Plus: The MMP-Profiling Assay is performed robotically on a Hamilton MicroLab AT Plus®. The Hamilton is programmed to: (1) serially dilute up to 11 potential inhibitors automatically from a 2.5 mM stock in 100% DMSO; (2) distribute substrate followed by inhibitor into a 96 well Cytofluor plate; and (3) add a single enzyme to the plate with mixing to start the reaction. Subsequent plates for each additional enzyme are prepared automatically by beginning the program at the substrate addition point, remixing the diluted inhibitors and beginning the reaction by addition of enzyme. In this way, all MMP assays were done using the same inhibitor dilutions.
(§6) Millipore Cytofluor II. Following incubation, the plate was read on a Cytofluor II fluorometric plate reader with excitation at 340 nm and emission at 395 nm with the gain set at 80.
(§7) Microfluorometric Reaction Buffer (MRB): Dilution of test compounds, enzymes, and P218 substrate for the microfluorometric assay were made in microfluorometric reaction buffer consisting of 50 mM 2-(N-morpholino)ethanesulfonic acid (MES) at pH 6.5 with 10 mM CaCl2, […] NaCl, 0.005% Brij-35 and 1% DMSO.
(§8) MMP Microfluorometric Profiling Assay. The assay is done with a final substrate concentration of 6 μM P218 and approximately 0.5 to 0.8 nM MMP with variable drug concentrations. The Hamilton is programmed to serially dilute up to 11 compounds from a 2.5 mM stock (100% DMSO) to 10× the final compounds concentrations in the assay. Initially, the instrument delivers various amounts of microfluoromentric reaction buffer (MRB) to a 96 tube rack of 1 ml Marsh dilution tubes. The instrument then picks up 20 μl of inhibitor (2.5 mM) from the sample rack and mixes it with a buffer in row A of the Marsh rack, resulting in a 50 μM drug concentration. The inhibitors are then serially diluted to 10, 5, 1, 0.2, 0.05 and 0.01 μM. […]

[2] = target: T2, MMP-3 (Homo sapiens, UniProt P08254); test: P218 quenched fluorescence assay for MMP inhibition, MMP-3; assay type: biochemical; conditions: 6 μM P218 substrate, 25 min at 37° C., pH 6.5; read-out: MMP-3 Fluorogenic IC50
T2 construct: made in house; host or cells: CHO cells
Excerpt: as §1, §2, §3, §4
Recombinant Human CHO Stromelysin (MMP-3)
Recombinant Human CHO Pro-MMP-3: Human CHO pro-stromelysin-257 (pro-MMP-3) was expressed and purified as described by Housley, et al., J. Biol. Chem. 268, 4481 (1993).
Activation of Pro-MMP-3: Pro-MMP-3 at 1.72 μM (100 μg/mL) in 5 mM Tris at pH 7.5, 5 mM CaCl2, 25 mM NaCl, and 0.005% Brij-35 (MMP-3 activation buffer) was activated by incubation with TPCK (N-tosyl-(L)-phenylalanine chloromethyl ketone) trypsin (1:100 w/w to pro-MMP-3) at 25° C. for 30 min. The reaction was stopped by addition of soybean trypsin inhibitor (SBTI; 5:1 w/w to trypsin concentration). This activation protocol results in the formation of 45 kDa active MMP-3, which still contains the C-terminal portion of the enzyme.
as §5, §6, §7, §8

[3] = target: MMP-2 (Homo sapiens, UniProt P08253); test: biochemical; conditions: MMP-2 Fluorogenic IC50
[4] = Child, et al., J. Pharm. Sci., 66, 466 (1977); cited from earlier work

T1 sequence (P14780 107-707 limits assumed): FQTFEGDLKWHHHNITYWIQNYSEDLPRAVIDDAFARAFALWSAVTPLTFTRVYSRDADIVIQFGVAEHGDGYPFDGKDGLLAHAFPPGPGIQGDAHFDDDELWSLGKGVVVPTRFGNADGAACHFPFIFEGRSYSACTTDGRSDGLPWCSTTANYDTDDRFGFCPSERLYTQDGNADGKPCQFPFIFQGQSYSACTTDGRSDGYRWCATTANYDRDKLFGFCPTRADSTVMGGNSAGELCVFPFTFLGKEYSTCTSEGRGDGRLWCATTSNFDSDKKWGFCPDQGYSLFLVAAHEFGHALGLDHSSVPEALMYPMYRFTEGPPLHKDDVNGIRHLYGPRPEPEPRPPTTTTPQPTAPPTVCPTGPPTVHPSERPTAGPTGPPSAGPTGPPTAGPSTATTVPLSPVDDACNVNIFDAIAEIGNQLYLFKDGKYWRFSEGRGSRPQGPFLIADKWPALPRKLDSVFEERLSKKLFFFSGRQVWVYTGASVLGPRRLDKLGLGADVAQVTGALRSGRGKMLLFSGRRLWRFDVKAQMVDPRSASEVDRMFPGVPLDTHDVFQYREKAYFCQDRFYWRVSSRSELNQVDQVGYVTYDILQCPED
T2 sequence (P08254 100-477): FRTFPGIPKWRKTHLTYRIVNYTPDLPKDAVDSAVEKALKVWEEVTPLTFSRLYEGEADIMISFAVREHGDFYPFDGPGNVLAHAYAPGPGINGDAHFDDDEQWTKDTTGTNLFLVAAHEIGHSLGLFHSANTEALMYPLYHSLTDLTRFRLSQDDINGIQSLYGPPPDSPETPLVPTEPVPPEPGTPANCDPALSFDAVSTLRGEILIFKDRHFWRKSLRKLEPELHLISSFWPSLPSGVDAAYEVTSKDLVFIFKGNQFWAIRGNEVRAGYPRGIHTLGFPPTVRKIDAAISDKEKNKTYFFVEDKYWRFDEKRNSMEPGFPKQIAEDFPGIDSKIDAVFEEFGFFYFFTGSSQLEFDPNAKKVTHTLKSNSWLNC
Chain of MMP-2 (P08253 110-660): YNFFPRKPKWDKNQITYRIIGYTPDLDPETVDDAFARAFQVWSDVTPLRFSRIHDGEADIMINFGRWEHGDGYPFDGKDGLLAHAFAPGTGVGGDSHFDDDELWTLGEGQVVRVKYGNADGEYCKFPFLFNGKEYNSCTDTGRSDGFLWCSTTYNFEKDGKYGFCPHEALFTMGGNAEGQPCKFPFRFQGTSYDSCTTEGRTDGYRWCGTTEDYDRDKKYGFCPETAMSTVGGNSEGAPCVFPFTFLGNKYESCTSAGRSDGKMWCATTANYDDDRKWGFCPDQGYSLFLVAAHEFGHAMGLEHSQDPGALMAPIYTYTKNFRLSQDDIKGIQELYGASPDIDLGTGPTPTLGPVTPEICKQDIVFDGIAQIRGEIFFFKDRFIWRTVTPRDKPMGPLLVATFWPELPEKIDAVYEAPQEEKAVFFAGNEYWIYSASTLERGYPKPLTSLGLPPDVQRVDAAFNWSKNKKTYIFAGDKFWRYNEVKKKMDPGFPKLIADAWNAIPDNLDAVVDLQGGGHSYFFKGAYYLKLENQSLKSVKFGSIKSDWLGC

Row | Compound | IC50 [1] [nM] | melting point [°C] | IC50 [2] [nM] | IC50 [3] [nM] | activity as anti-inflammatory analgesic agents [4]
1 | O=C(O)C1[C@H](COCOCc2ccccc2)CC[C@@H]1C(=O)c1ccc(-c2ccc(Cl)cc2)cc1 (relative stereo) [Example 2] | 24 | 112 to 130 | 17 | 9.5 | 
2 | O=C(CC(CCn1nnc2ccccc2c1=O)C(=O)O)c1ccc(-c2ccc(Cl)cc2)cc1 (single isomer, unassigned) [Example 20, α-[2-(4′-chloro[1,1′-biphenyl]-4-yl)-2-oxoethyl]-4-oxo-1,2,3,-Benzotriazine-3(4H)-butanoic acid] | 84 |  | 320 | 57 | 
3 | O=C(CC(CCn1nnc2ccccc2c1=O)C(=O)O)c1ccc(-c2ccc(Cl)cc2)cc1 (single isomer, unassigned) [Example 21, α-[2-(4′-chloro[1,1′-biphenyl]-4-yl)-2-oxoethyl]-4-oxo-1,2,3,-Benzotriazine-3(4H)-butanoic acid] | 2.1 |  | 6.5 | 1.5 | 
4 | O=C(c1ccc(-c2ccc(Cl)cc2)cc1)C1CCC(CSC(=S)N2CCCC2)C1C(=O)O (centres unmarked) [Example 3] | 67 | 177 to 178 | 31 | 21 | 
5 | O=C(c1ccc(-c2ccc(Cl)cc2)cc1)C1CCC(Cn2ncc3ccccc3c2=O)C1C(=O)O (centres unmarked) [Example 5] | 2.3 |  | 4.2 | 1.4 | 
6 | O=C(c1ccc(-c2ccc(Cl)cc2)cc1)C1CCC(Cn2c(=O)oc3ccccc32)C1C(=O)O (centres unmarked) [Example 6] | 4.3 |  | 4.1 | 0.5 | 
7 | O=C(CC(CCn1ncc2ccccc2c1=O)C(=O)O)c1ccc(-c2ccc(Cl)cc2)cc1 (stereo not drawn) [Example 18, R/S α-[2-(4′-chloro[1,1′-biphenyl]-4-yl)-2-oxoethyl]-1-oxo-2(1H)-phthalazinebutanoic acid] | 32 |  | 59 | 13 | 
8 | O=C(O)CC(C(=O)c1ccc(-c2ccccc2)cc1)c1ccccc1 (centres unmarked) [LXXVII] |  |  |  |  | inactive
9 | O=C(CC(C(=O)O)c1ccccc1)c1ccc(-c2ccccc2)cc1 (centres unmarked) [XLIX] |  |  |  |  | inactive
10 | CC(CC(=O)c1ccc(-c2ccccc2)cc1)C(=O)O (centres unmarked) [XLVII] |  |  |  |  | inactive
